Experimental data published in patent US9763444B2, “Compositions and methods for repelling blood-sucking and biting insects, ticks and mites” (The United States of America, as represented by the …, priority 2013, dated 2017).

Legend:
Ae. aegypti [1] = experiment: Complete Protection Time test on treated cloth (duration of protection); type: in vivo, Aedes aegypti; details: Dosage 0.75 mg/cm^2 on cloth; for Duration of protection against Ae. aegypti, M-3 Days Protection: subject M-3
Protocol: Bioassay for mosquito repellent activity: Repellency screening test for experimental chemicals were carried out to identify candidates that might be useful repellents. The repellent efficacy was compared to that of the standard repellent, DEET. Experimental compounds were assessed in one of two ways: (1) a range of concentration was evaluated to determine the minimum effective dosage (MED) which was the concentration threshold of where the repellent began to fail and allowed bites, or (2) a predetermined concentration of each repellent was applied to cloth and the activity was evaluated over several days (or in some cases months) (Katritzky, A. R., et al., Proc. Nat. Acad. Sci. (US), 105, 7359-7364 (2008); Katritzky, A. R., et al., Journal of Med. Entomol., 47: 924-938 (2010)). When conducting assays for repellency, a failure point was also predetermined for those measurements. Since experiments described herein used about 500 female mosquitoes per test, the failure point was set at 1% (equal to 5 bites) received during a test interval. From 3 to 5 volunteers participated in the screening of each set of chemicals. Complete Protection Time Test: Complete protection time (CPT) on treated cloth is a method of screening that is used to determine the repellent duration for experimental chemicals that have not been examined for safe use on humans. The standard repellent DEET was used as a positive control as a benchmark by which to compare the repellents. Experimental compounds were prepared in solution by combining 0.075 g of experimental chemical with 1 mL of acetone in a 7.1-mL screwtop glass vial. The same concentration level of DEET was also prepared in this way to serve as a control and a comparison for relative repellency. A 50 cm^2 (5 cm×10 cm) patch of muslin cloth was rolled lengthwise and placed into each of the glass vials and sealed with a screwtop so it soaked up the solution. Just prior to the experiment, the pieces of treated cloth were removed from the vials, affixed to card stock tabs (5 cm×3 cm) with staples, and hung with masking tape on a rack to dry and allowed the volatile acetone to evaporate. Similar to the MED tests, volunteers wore a latex glove over their hands, a nylon stocking over their arm, and then wrapped a plastic Velcro-sealed sleeve over their entire forearm with a 32 cm^2 (4 cm×8 cm) window cut-out to allow mosquitoes to bite through. Dried cloth patches were stretched across the window in the plastic sleeve and held in place with masking tape. Volunteers placed their sleeve-covered arms into a screened cage for a one minute period with approximately 500 female Ae. aegypti mosquitoes that had been preselected for host-seeking behavior using a draw box. A cloth patch that received a 1% bite through level, equal to 5 mosquitoes that bit out of 500 mosquitoes, was considered a failure at that concentration. If 0-4 bites were received, then the treated cloth was still considered to be repellent at that concentration. The duration was recorded as the number of days an experimental chemical received a passing result, with day 0 being the day the sample was first dried. […] As with the tests conducted to determine CPT, volunteers in the study provided informed consent (IRB protocol #636-2005). The protocol was approved by the University of Florida Human Use Institutional Review Board.

An. albimanus = experiment: Minimum Effective Dosage (MED) test on treated cloth, mosquito repellency; type: in vivo, Anopheles albimanus; details: Table 4; for An. albimanus Minimum Effective Dosage, Average: mean of 5 volunteers; for An. albimanus Minimum Effective Dosage, M4: subject M4; for An. albimanus Minimum Effective Dosage, M4 / An. albimanus Minimum Effective Dosage, M5 / An. albimanus Minimum Effective Dosage, M8 / An. albimanus Minimum Effective Dosage, M9 / An. albimanus Minimum Effective Dosage, M10: highest concentration 1.500 mg/cm^2; for An. albimanus Minimum Effective Dosage, M5: subject M5; for An. albimanus Minimum Effective Dosage, M8: subject M8; for An. albimanus Minimum Effective Dosage, M9: subject M9; for An. albimanus Minimum Effective Dosage, M10: subject M10
Ae. aegypti [2] = experiment: MED of varying molar ratios of 2 and DEET (synergistic activity); type: in vivo, Aedes aegypti; details: Table 6, molar ratio 2:DEET; for Ae. aegypti Minimum Effective Dosage, Average: mean of 3 volunteers; for Ae. aegypti Minimum Effective Dosage, M4: subject M4; for Ae. aegypti Minimum Effective Dosage, M4 / Ae. aegypti Minimum Effective Dosage, M5 / Ae. aegypti Minimum Effective Dosage, M8: highest dose 4.0 mg/cm2; for Ae. aegypti Minimum Effective Dosage, M5: subject M5; for Ae. aegypti Minimum Effective Dosage, M8: subject M8
Protocol: Minimum Effective Dosage (MED) Test: The MED bioassays on treated cloth were a method of screening to determine the minimum amount of a repellent needed to prevent bites. Experimental compounds were prepared in solution by combining 0.15 g of experimental chemical with 2 mL of acetone in a 7.1 mL screwtop glass vial. […] The standard N,N-diethyl-3-methylbenzamide (DEET) was also tested at the same concentration levels to serve as a control and a comparison for relative repellency. A 50 cm^2 (5 cm×10 cm) patch of muslin cloth was rolled lengthwise and placed into each of the glass vials and scaled with a screwtop so it soaked up the solution. Just prior to the experiment, the pieces of treated cloth were removed from the vials, affixed to card stock tabs (5 cm×3 cm) with staples, and hung with masking tape on a rack to dry and allow acetone to evaporate. Volunteers wore a latex glove over their hands, a nylon stocking over their arm, and then wrapped a plastic Velcro-sealed sleeve over their entire forearm with a 32 cm^2 (4 cm×8 cm) window cut-out to allow mosquitoes to bite through. The nylon stocking acted as a barrier between the dried cloth and the skin, an additional precaution with experimental compounds. Dried cloth patches were stretched across the window in the plastic sleeve and held in place with masking tape. Volunteers placed their sleeve-covered arms into a screened cage for a one minute period with approximately 500 female Ae. aegypti mosquitoes that had been preselected for host-seeking behavior using a draw box (Posey, K. H., and C. E. Schreck, Mosquito News, 41: 566-568 (1981)). […] The MED recorded was the lowest passing concentration level tested for the experimental compound. […] All human volunteers in the study provided informed consent to participate of a protocol approved by the University of Florida Human Use Institutional Review Board (IRB #636-2005).
Compound 2 was also evaluated with DEET for synergistic activity. Test samples were prepared at varying molar ratios of DEET: 2 (1:0-1:[…]) and the MED values were evaluated (Table 6).

| Compound | Duration of protection, Proportion to DEET (Ae. aegypti [1]) | Duration of protection against Ae. aegypti, M-3 Days Protection (Ae. aegypti [1]) [days] | An. albimanus Minimum Effective Dosage, Average (An. albimanus) [mg/cm^2] | An. albimanus Minimum Effective Dosage, M4 (An. albimanus) [mg/cm^2] | An. albimanus Minimum Effective Dosage, M5 (An. albimanus) [mg/cm^2] | An. albimanus Minimum Effective Dosage, M8 (An. albimanus) [mg/cm^2] | An. albimanus Minimum Effective Dosage, M9 (An. albimanus) [mg/cm^2] | An. albimanus Minimum Effective Dosage, M10 (An. albimanus) [mg/cm^2] | Ae. aegypti Minimum Effective Dosage, Average (Ae. aegypti [2]) [mg/cm^2] | Ae. aegypti Minimum Effective Dosage, M4 (Ae. aegypti [2]) [mg/cm^2] | Ae. aegypti Minimum Effective Dosage, M5 (Ae. aegypti [2]) [mg/cm^2] | Ae. aegypti Minimum Effective Dosage, M8 (Ae. aegypti [2]) [mg/cm^2] |
| --- | --- | --- | --- | --- | --- | --- | --- | --- | --- | --- | --- | --- |
| CC1(C)C=Cc2c(CO)cccc2O1 [Compound 2] | 3.00 | 6 | 0.234 | 0.047 | 0.375 | 0.187 | 0.375 | 0.187 | 0.0260 | 0.0156 | 0.0313 | 0.0313 |
| CCN(CC)C(=O)c1cccc(C)c1 [DEET, N,N-diethyl-3-methylbenzamide, reference compound] | 1.00 | 2 | 0.025 | 0.011 | 0.047 | 0.023 | 0.023 | 0.023 | 0.0313 | 0.0313 | 0.0313 | 0.0313 |
